Measurements reported in paper PMC2546511 (Journal of Molecular Biology, 2007).

Biological target: FliI ATPase (FliI^WT) (Salmonella enterica, UniProt P26465)
Settings: in the presence of phospholipids; triplicate assays

FliI ATPase (FliI^WT), sequence (P26465 whole entry): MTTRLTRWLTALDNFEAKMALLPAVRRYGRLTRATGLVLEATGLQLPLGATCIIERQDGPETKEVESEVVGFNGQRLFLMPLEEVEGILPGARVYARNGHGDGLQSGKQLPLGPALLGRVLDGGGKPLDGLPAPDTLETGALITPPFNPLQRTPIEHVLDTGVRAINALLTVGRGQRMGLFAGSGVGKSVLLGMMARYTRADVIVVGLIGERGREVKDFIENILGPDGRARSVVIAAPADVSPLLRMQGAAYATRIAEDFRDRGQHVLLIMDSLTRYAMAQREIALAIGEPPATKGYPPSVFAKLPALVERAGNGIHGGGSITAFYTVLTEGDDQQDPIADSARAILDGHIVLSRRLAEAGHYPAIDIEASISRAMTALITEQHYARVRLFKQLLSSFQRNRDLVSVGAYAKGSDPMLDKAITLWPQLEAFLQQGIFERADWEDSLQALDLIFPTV

## Nc1ncnc2c1ncn2[C@@H]1O[C@H](COP(=O)(O)OP(=O)(O)OP(=O)(O)O)[C@@H](O)[C@H]1O [ATP]
  Km: 1 ± 15% mM
